Measurements: patent US9034400B2, “Process for preparation of a herbal extract” (Piramal Enterprises Limited, priority 2011, dated 2015)

Tested on: subject with uncontrolled type II diabetes / non insulin-dependent diabetes
Assay: Anecdotal studies: hypoglycemic effect, blood glucose level of diabetic subjects
Assay type: in vivo, human
Settings: before capsules

Structure (SMILES): CN(C)C(=N)N=C(N)N [metformin]
- daily blood glucose level (base level) on metformin alone (study 2: person, 61 kg, non insulin-dependent diabetes, metformin 500 mg BID): 234 mg/dL
- daily blood glucose level (base level) on metformin alone (study 3: person, 67 kg, non insulin-dependent uncontrolled diabetic, metformin 500 mg, three tablets per day): 261 mg/dL
